The results in this text go back to US20230330112A1, “COMPOSITION AND TREATMENT FOR CANCER WITH MUTATIONS” (BRIDGE BIOTHERAPEUTICS, INC., priority 2022, published 2023).

SMILES strings stand for the structures.

Assay [1] has as its system Ba/F3 EGFR 19Del/C797S xenograft. Description: Ba/F3 EGFR 19Del/C797S xenograft study. Format: in vivo, mouse. Particulars: even at 25 mg/kg. The procedure: (§1) For Ba/F3 EGFR 19Del/C797S and EGFR 19Del/T790M/C797S xenografts models, each mouse was inoculated subcutaneously at the right flank with cells (0.5×10^6) in 0.1 mL of PBS supplemented with BD Matrigel (1:1) for tumor development. The animals were randomized, and treatment was started when the average tumor volume reached 150-180 mm^3 for the efficacy study.
(§2) Tumor volumes were measured twice weekly in two dimensions using a caliper, and the volume was expressed in mm^3 using the formula: volume=0.5 a×b^2 where a and b are the long and short diameters of the tumor, respectively. The tumor sizes were then used for the calculations of T/C (treatment/control) values. The tumor volume was used for calculation of tumor growth index (TGI) of each group according to the following formula: TGI (%)=[1-(Tti-Tt0)/(Vci-Vc0)]×100. The bodyweight of mice was measured daily for the dosing phase, and the relative change of bodyweight (RCBW) of each mouse according to the following formula: […]

Assay [2] deals with Ba/F3 EGFR 19Del/T790M/C797S xenografts. As to the kind of experiment: Ba/F3 EGFR 19Del/T790M/C797S xenograft study. Format: in vivo, mouse. Particulars: even at 25 mg/kg. As to the method: as §1, §2

As to `C=CC(=O)Nc1cc(Nc2nccc(-c3cn(C)c4ccccc34)n2)c(OC)cc1N(C)CCN(C)C` [osimertinib, reference compound], the tumor growth entry in assay [1] and in assay [2] was “did not block the tumor growth” throughout.
